One assay deals with T1, human V1a receptor (Homo sapiens, UniProt P37288).
T1 construct: expressed in transfected cells; host or cells: CHO K1 (ATCC), also stably transfected with a modified aequorin
In words: Cellular in vitro assay for determining vasopressin receptor activity, V1a receptor cell line (CHO, aequorin luminescence). The assay is classed as cell-based. The conditions noted are these: for IC50: CHO cell line transfected with human V1a receptor, [Arg]-vasopressin at EC50 concentration, read-out: IC50 hV1a; for ratio IC50 hV2/hV1a: selectivity ratio IC50 hV2 / IC50 hV1a. The essentials: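 IC50 from inhibition of [Arg]-vasopressin (EC50 concentration)-evoked aequorin luminescence in CHO K1 cells, with 10-min compound pretreatment.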

For the next assay, the target named is T2, human V2 receptor (Homo sapiens, UniProt P30518).
T2 construct: expressed in transfected cells; host or cells: CHO K1 (ATCC) expressing firefly luciferase under a CRE-responsive promoter
The assay can be described thus: Cellular in vitro assay for determining vasopressin receptor activity, V2 receptor cell line (CHO, CRE-luciferase). The conditions noted are these: CHO cell line transfected with human V2 receptor; [Arg8]-vasopressin at EC50 concentration, 3 hours; read-out: IC50 hV2. The assay is classed as cell-based.

T1 sequence (P37288 whole entry): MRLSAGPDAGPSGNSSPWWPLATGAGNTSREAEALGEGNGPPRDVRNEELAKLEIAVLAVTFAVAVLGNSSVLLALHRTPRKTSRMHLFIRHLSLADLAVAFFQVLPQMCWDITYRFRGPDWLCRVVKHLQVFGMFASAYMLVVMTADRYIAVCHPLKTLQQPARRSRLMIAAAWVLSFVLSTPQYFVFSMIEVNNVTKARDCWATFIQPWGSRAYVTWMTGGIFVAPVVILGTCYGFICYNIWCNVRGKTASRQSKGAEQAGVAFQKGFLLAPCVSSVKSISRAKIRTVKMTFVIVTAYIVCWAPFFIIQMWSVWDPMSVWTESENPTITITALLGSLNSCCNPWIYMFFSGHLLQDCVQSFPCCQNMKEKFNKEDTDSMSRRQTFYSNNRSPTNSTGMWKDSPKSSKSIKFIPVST
T2 sequence (P30518 whole entry): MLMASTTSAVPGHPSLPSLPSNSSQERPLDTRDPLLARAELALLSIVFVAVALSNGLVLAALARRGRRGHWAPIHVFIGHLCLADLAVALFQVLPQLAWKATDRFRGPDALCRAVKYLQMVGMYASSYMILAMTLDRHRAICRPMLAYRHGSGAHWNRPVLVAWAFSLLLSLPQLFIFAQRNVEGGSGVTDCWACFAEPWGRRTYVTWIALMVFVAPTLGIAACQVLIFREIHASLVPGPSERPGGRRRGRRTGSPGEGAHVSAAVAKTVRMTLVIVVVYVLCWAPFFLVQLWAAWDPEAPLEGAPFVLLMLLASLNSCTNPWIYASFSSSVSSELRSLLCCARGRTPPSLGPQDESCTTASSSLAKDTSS

`O=C(Nc1ncccc1-n1cnc(Cn2nc(-c3ccc(Cl)cc3)n(C[C@H](O)C(F)(F)F)c2=O)n1)C1CCOCC1` [Example 134]: the figures for the IC50 on human V1a receptor and on human V2 receptor were 117 nM and 1250 nM, respectively. Further, at human V1a receptor, the “ratio IC50 hV2/hV1a” value is 10.7.

As for `Cc1cc(CC(=O)Nc2ncccc2-n2cnc(Cn3nc(-c4ccc(Cl)cc4)n(C[C@H](O)C(F)(F)F)c3=O)n2)on1` [Example 135], on human V1a receptor, the IC50 turned out to be 66.5 nM and the “ratio IC50 hV2/hV1a” value turned out to be 14.0. For the same molecule, at human V2 receptor, the IC50 worked out at 930 nM.

As to `O=C(CC1CCC1)Nc1ncccc1-n1cnc(Cn2nc(-c3ccc(Cl)cc3)n(C[C@H](O)C(F)(F)F)c2=O)n1` [Example 136], at human V1a receptor, the IC50 was 23.5 nM and the “ratio IC50 hV2/hV1a” value was found to be 14.5. The IC50 at human V2 receptor stood at 340 nM.

For the molecule `COC(C)(C)C(=O)Nc1ncccc1-n1cnc(Cn2nc(-c3ccc(Cl)cc3)n(C[C@H](O)C(F)(F)F)c2=O)n1` [Example 137], on human V1a receptor, the IC50 was 146 nM and the “ratio IC50 hV2/hV1a” value is listed as 9.2. The IC50 on human V2 receptor came to 1350 nM.

With `Cc1nonc1CC(=O)Nc1ncccc1-n1cnc(Cn2nc(-c3ccc(Cl)cc3)n(C[C@H](O)C(F)(F)F)c2=O)n1` [Example 138], on human V1a receptor, the IC50 came to 38.5 nM and the “ratio IC50 hV2/hV1a” value was 61.0. Further, at human V2 receptor, the IC50 is 2350 nM.

In the case of `CCc1cc(C(=O)Nc2ncccc2-n2cnc(Cn3nc(-c4ccc(Cl)cc4)n(C[C@H](O)C(F)(F)F)c3=O)n2)no1` [Example 139], at human V1a receptor, the IC50 stood at 20.5 nM and the “ratio IC50 hV2/hV1a” value is given as 22.7. Also, the IC50 at human V2 receptor is 465 nM.

For the molecule `CCc1cc(C(=O)Nc2ncccc2-n2cnc(Cn3nc(-c4ccc(Cl)cc4)n(C[C@H](O)C(F)(F)F)c3=O)n2)on1` [Example 140], at human V1a receptor, the IC50 was determined as 33.5 nM and the “ratio IC50 hV2/hV1a” value was 30.0. The IC50 on human V2 receptor is 1010 nM.

As to `O=C(CC1CCCO1)Nc1ncccc1-n1cnc(Cn2nc(-c3ccc(Cl)cc3)n(C[C@H](O)C(F)(F)F)c2=O)n1` (stereo partly drawn) [Example 141], on human V1a receptor, the IC50 turned out to be 32 nM and the “ratio IC50 hV2/hV1a” value turned out to be 33.3. In addition, the IC50 on human V2 receptor stood at 1060 nM.

With `CC1=NOC(C)(C(=O)Nc2ncccc2-n2cnc(Cn3nc(-c4ccc(Cl)cc4)n(C[C@H](O)C(F)(F)F)c3=O)n2)C1` (stereo partly drawn) [Example 142], on human V1a receptor, the IC50 stood at 100 nM and the “ratio IC50 hV2/hV1a” value is given as 24.0. Besides, on human V2 receptor, the IC50 worked out at 2400 nM.

`O=C(Nc1ncccc1-n1cnc(Cn2nc(-c3ccc(Cl)cc3)n(C[C@H](O)C(F)(F)F)c2=O)n1)c1ccncn1` [Example 143]: on human V1a receptor, the IC50 is 15 nM and the “ratio IC50 hV2/hV1a” value is listed as 74.7. Besides, at human V2 receptor, the IC50 is 1120 nM.

Take `C=CC(C)C(=O)Nc1ncccc1-n1cnc(Cn2nc(-c3ccc(Cl)cc3)n(C[C@H](O)C(F)(F)F)c2=O)n1` (stereo partly drawn) [Example 144]: the figures for the IC50 at human V1a receptor and at human V2 receptor were 185 nM and 1900 nM, respectively. Moreover, the “ratio IC50 hV2/hV1a” value on human V1a receptor stood at 10.3.

As to `CC(C)(O)C(=O)Nc1ncccc1-n1cnc(Cn2nc(-c3ccc(Cl)cc3)n(C[C@H](O)C(F)(F)F)c2=O)n1` [Example 145], the values for the IC50 at human V1a receptor and at human V2 receptor were 125 nM and 1010 nM, respectively. The “ratio IC50 hV2/hV1a” value at human V1a receptor stood at 8.1.

For `CCCC(=O)Nc1ncccc1-n1cnc(Cn2nc(-c3ccc(Cl)cc3)n(C[C@H](O)C(F)(F)F)c2=O)n1` [Example 146], on human V1a receptor, the IC50 amounted to 56 nM and the “ratio IC50 hV2/hV1a” value was determined as 9.9. On human V2 receptor, the IC50 came to 555 nM.

Consider `CCC(=O)Nc1ncccc1-n1cnc(Cn2nc(-c3ccc(Cl)cc3)n(C[C@H](O)C(F)(F)F)c2=O)n1` [Example 147], for which, on human V1a receptor, the IC50 was 305 nM and the “ratio IC50 hV2/hV1a” value is 3.1. For the same molecule, at human V2 receptor, the IC50 came to 940 nM.

Consider `CC(C)CC(=O)Nc1ncccc1-n1cnc(Cn2nc(-c3ccc(Cl)cc3)n(C[C@H](O)C(F)(F)F)c2=O)n1` [Example 148], for which the IC50 at human V1a receptor stood at 19 nM; on human V2 receptor, 255 nM. Besides, the “ratio IC50 hV2/hV1a” value on human V1a receptor was determined as 13.4.

Consider `CSCC(=O)Nc1ncccc1-n1cnc(Cn2nc(-c3ccc(Cl)cc3)n(C[C@H](O)C(F)(F)F)c2=O)n1` [Example 149], for which, on human V1a receptor, the IC50 was found to be 12.4 nM and the “ratio IC50 hV2/hV1a” value is listed as 153.2. In addition, the IC50 at human V2 receptor came out at 1900 nM.

On to `O=C(CC1CCCC1)Nc1ncccc1-n1cnc(Cn2nc(-c3ccc(Cl)cc3)n(C[C@H](O)C(F)(F)F)c2=O)n1` [Example 150], for which, at human V1a receptor, the IC50 came to 54.5 nM and the “ratio IC50 hV2/hV1a” value was found to be 44.0. Further, on human V2 receptor, the IC50 was 2400 nM.

Consider `CC(C)C(=O)Nc1ncccc1-n1cnc(Cn2nc(-c3ccc(Cl)cc3)n(C[C@H](O)C(F)(F)F)c2=O)n1` [Example 151], for which, on human V1a receptor, the IC50 amounted to 98 nM and the “ratio IC50 hV2/hV1a” value worked out at 6.8. Also, the IC50 on human V2 receptor was 665 nM.

In the case of `C=CCC(=O)Nc1ncccc1-n1cnc(Cn2nc(-c3ccc(Cl)cc3)n(C[C@H](O)C(F)(F)F)c2=O)n1` [Example 152], on human V1a receptor, the IC50 is 65 nM and the “ratio IC50 hV2/hV1a” value is listed as 20.8. Further, the IC50 at human V2 receptor was 1350 nM.

Turning to `N#Cc1cccc(C(=O)Nc2ncccc2-n2cnc(Cn3nc(-c4ccc(Cl)cc4)n(C[C@H](O)C(F)(F)F)c3=O)n2)c1` [Example 153], at human V1a receptor, the IC50 came to 410 nM and the “ratio IC50 hV2/hV1a” value was determined as 42.2. In addition, the IC50 at human V2 receptor was 17300 nM.

In the case of `CC1(C(=O)Nc2ncccc2-n2cnc(Cn3nc(-c4ccc(Cl)cc4)n(C[C@H](O)C(F)(F)F)c3=O)n2)CC1` [Example 154], the IC50 at human V1a receptor was 6.75 nM; at human V2 receptor, 2200 nM. In addition, the “ratio IC50 hV2/hV1a” value on human V1a receptor is on record as 325.9.

In the case of `CC(C(=O)Nc1ncccc1-n1cnc(Cn2nc(-c3ccc(Cl)cc3)n(C[C@H](O)C(F)(F)F)c2=O)n1)n1cncn1` (stereo partly drawn) [Example 155], on human V1a receptor, the IC50 was 39 nM and the “ratio IC50 hV2/hV1a” value amounted to 50.0. Moreover, the IC50 at human V2 receptor came out at 1950 nM.

In the case of `O=C(Nc1ncccc1-n1cnc(Cn2nc(-c3ccc(Cl)cc3)n(C[C@H](O)C(F)(F)F)c2=O)n1)C1CCCCCC1` [Example 156], on human V1a receptor, the IC50 was found to be 66 nM and the “ratio IC50 hV2/hV1a” value is 20.5. For the same molecule, on human V2 receptor, the IC50 was found to be 1350 nM.

With `O=C(Nc1ncccc1-n1cnc(Cn2nc(-c3ccc(Cl)cc3)n(C[C@H](O)C(F)(F)F)c2=O)n1)c1ccncc1` [Example 157], at human V1a receptor, the IC50 amounted to 3.55 nM and the “ratio IC50 hV2/hV1a” value is 859.2. In addition, the IC50 at human V2 receptor turned out to be 3050 nM.

Turning to `CC(C)(C)CC(=O)Nc1ncccc1-n1cnc(Cn2nc(-c3ccc(Cl)cc3)n(C[C@H](O)C(F)(F)F)c2=O)n1` [Example 158], on human V1a receptor, the IC50 amounted to 10.6 nM and the “ratio IC50 hV2/hV1a” value is 360.2. Also, the IC50 at human V2 receptor was 3800 nM.

For `O=C(Nc1ncccc1-n1cnc(Cn2nc(-c3ccc(Cl)cc3)n(C[C@H](O)C(F)(F)F)c2=O)n1)C1CCCCC1` [Example 159], on human V1a receptor, the IC50 was determined as 52.5 nM and the “ratio IC50 hV2/hV1a” value worked out at 35.2. In addition, at human V2 receptor, the IC50 is 1850 nM.

`Cc1cc(C(=O)Nc2ncccc2-n2cnc(Cn3nc(-c4ccc(Cl)cc4)n(C[C@H](O)C(F)(F)F)c3=O)n2)no1` [Example 161]: the results for the IC50 on human V1a receptor and at human V2 receptor were 26.5 nM and 500 nM, respectively. Moreover, the “ratio IC50 hV2/hV1a” value on human V1a receptor is 18.9.

With `Cc1cccc(C(=O)Nc2ncccc2-n2cnc(Cn3nc(-c4ccc(Cl)cc4)n(C[C@H](O)C(F)(F)F)c3=O)n2)c1` [Example 162], at human V1a receptor, the IC50 turned out to be 300 nM and the “ratio IC50 hV2/hV1a” value is recorded as 24.0. Further, the IC50 at human V2 receptor is 7200 nM.

With `O=C(Nc1ncccc1-n1cnc(Cn2nc(-c3ccc(Cl)cc3)n(C[C@H](O)C(F)(F)F)c2=O)n1)c1ccno1` [Example 163], the IC50 came to 28 nM at human V1a receptor and 1300 nM at human V2 receptor. Moreover, the “ratio IC50 hV2/hV1a” value on human V1a receptor is listed as 46.4.

As for `Cc1cn(CC(=O)Nc2ncccc2-n2cnc(Cn3nc(-c4ccc(Cl)cc4)n(C[C@H](O)C(F)(F)F)c3=O)n2)nn1` [Example 164], on human V1a receptor, the IC50 is 660 nM and the “ratio IC50 hV2/hV1a” value came out at 2.0. Further, on human V2 receptor, the IC50 came to 1300 nM.

Take `O=C(CC1CCCCO1)Nc1ncccc1-n1cnc(Cn2nc(-c3ccc(Cl)cc3)n(C[C@H](O)C(F)(F)F)c2=O)n1` (stereo partly drawn) [Example 165]: on human V1a receptor, the IC50 was determined as 66 nM and the “ratio IC50 hV2/hV1a” value is on record as 9.6. Besides, the IC50 at human V2 receptor came to 635 nM.

In the case of `O=C(Nc1ncccc1-n1cnc(Cn2nc(-c3ccc(Cl)cc3)n(C[C@H](O)C(F)(F)F)c2=O)n1)C1CCCCO1` (stereo partly drawn) [Example 166], on human V1a receptor, the IC50 was 39 nM and the “ratio IC50 hV2/hV1a” value is 51.3. For the same molecule, the IC50 at human V2 receptor turned out to be 2000 nM.

In the case of `O=C(Nc1ncccc1-n1cnc(Cn2nc(-c3ccc(Cl)cc3)n(C[C@H](O)C(F)(F)F)c2=O)n1)OCC(F)(F)F` [Example 167, 2,2,2-Trifluoroethyl {3-[3-({3-(4-chlorophenyl)-5-oxo-4-[(2S)-3,3,3-trifluoro-2-hydroxypropyl]-4,5-dihydro-1H-1,2,4-triazol-1-yl}methyl)-1H-1,2,4-triazol-1-yl]pyridin-2-yl}carbamate], the IC50 on human V1a receptor was determined as 19.3 nM; at human V2 receptor, 1250 nM. Further, the “ratio IC50 hV2/hV1a” value on human V1a receptor is recorded as 64.7.

On to `O=C(NCC(F)(F)F)c1ccccc1-n1cnc(Cn2nc(-c3ccc(Cl)cc3)n(C[C@@H](O)C(F)(F)F)c2=O)n1` [Example 168, 2-[3-({3-(4-Chlorophenyl)-5-oxo-4-[(2R)-3,3,3-trifluoro-2-hydroxypropyl]-4,5-dihydro-1H-1,2,4-triazol-1-yl}methyl)-1H-1,2,4-triazol-1-yl]-N-(2,2,2-trifluoroethyl)benzamide], for which the IC50 on human V1a receptor is 28.5 nM; at human V2 receptor it was 1540 nM. For the same molecule, the “ratio IC50 hV2/hV1a” value on human V1a receptor was 54.1.

In general, IC50 refers to the midpoint of a concentration-inhibition curve.
